Measured values published in US8637237B2, “Methods, compositions, and systems for the identification of species-specific or developmental stage-specific insecticides” (The University of North Carolina at Greensboro, priority 2003, dated 2014).

Biological target: T1, FXR (Rattus norvegicus, UniProt Q62735)
T1 sequence (Q62735 1-469): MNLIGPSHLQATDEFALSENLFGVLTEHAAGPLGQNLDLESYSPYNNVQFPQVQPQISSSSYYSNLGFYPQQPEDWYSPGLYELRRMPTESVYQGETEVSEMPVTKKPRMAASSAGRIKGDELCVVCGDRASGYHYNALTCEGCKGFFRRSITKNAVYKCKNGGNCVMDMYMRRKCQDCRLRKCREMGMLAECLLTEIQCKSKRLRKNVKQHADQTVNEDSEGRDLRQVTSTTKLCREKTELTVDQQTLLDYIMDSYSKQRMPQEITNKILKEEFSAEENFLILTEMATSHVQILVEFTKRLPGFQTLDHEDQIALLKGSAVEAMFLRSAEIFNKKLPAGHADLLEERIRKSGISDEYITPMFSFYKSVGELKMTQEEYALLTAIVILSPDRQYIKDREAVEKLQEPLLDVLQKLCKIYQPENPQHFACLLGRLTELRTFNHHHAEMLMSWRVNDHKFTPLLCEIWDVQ
T1 sequence (P28700 1-467 partner): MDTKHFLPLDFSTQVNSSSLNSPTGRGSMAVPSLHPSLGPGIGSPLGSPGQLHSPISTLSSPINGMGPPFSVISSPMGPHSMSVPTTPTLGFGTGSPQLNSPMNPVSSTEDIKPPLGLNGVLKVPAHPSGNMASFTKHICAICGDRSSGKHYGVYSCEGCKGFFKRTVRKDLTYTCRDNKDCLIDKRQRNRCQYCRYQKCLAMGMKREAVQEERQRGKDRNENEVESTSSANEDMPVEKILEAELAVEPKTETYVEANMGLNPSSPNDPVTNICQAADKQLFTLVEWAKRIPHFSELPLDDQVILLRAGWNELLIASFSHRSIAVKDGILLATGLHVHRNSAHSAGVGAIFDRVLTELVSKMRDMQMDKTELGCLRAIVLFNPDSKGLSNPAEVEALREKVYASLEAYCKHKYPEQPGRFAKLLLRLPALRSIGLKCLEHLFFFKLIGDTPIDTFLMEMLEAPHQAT
Assay: cell-based
Method: These experiments employed a mammalian cell culture system using Chinese hamster ovary cells (CHO) to evaluate the transcriptional function of Drosophila melanogaster EcR and USP using methods described previously (U.S. Patent Application Publication No: 2005/0049230; Henrich et al, 2003). Cells were seeded in 6-well polypropylene culture plates (Falcon) with 10^5 cells per well on the day prior to transfection. Transfection was subsequently performed using either calcium phosphate (Kitareewan et al., 1996, Mol. Biol. Cell, 7:1153-1196) or a GenePorter reagent (Gene Therapy Systems, Inc; San Diego, Calif.) following manufacturer's protocols. Each well received 1.25 μg of (EcRE)5-ΔMTV-CAT (five copies of the hsp27 EcRE inserted into an mouse mammary tumor virus (MTV) promoter upstream of the chloramphenicol acetyltransferase (CAT) gene) or (EcRE)5-ΔMTV-LUC (the same promoter attached to firefly luciferase), 1.25 μg of pCH111 (SV40 early promoter linked to the β-galactosidase gene) to normalize CAT activity, and 0.25 μg of each expression plasmid (EcR, FXR, RXR, USP) that was tested. The cells were incubated with plasmid DNA for seven hours and then washed with 1×PBS. Muristerone A (murA; Alexis Biochemicals) or 20-hydroxyecdysone (20E; Sigma) dissolved in ethanol to a concentration of 10 mM was diluted as necessary to the final assay concentration (FAC) in 2 ml of fresh incubation medium that was then applied to the cells. Similarly, JHIII (Sigma) was dissolved in dimethyl sulfoxide (DMSO) to a concentration of […] and diluted into the incubation medium to its final assay concentration (20, 40, 80, 160 μM). […] A corresponding volume of ethanol and DMSO were added to control cells for all experiments. For all experiments, the cells were allowed to incubate with the medium for 24 hours before collection and cell lysates were prepared by described methods (Kitareewan et al., 1996). Both β-galactosidase and CAT reporter activity were measured based on previously used methods (Kitareewan et al, 1996). Luciferase assays using luciferrin followed the specifications of the manufacturer.
Transcriptional activity, measured as ^14C-chloramphenicol counts (for measuring CAT activity) or relative luciferase activity (RLU) was quantified for each cell lysate. The counts were then normalized by adjusting for differences in β-galactosidase activity, since β-galactosidase expression is controlled by a constitutive promoter and provides an estimate of cell mass. Data were normalized as fold-induction based on differences in reporter gene activity between hormonally treated and control cells.
In these experiments, candidate juvenoids were tested for their ability to activate FXR mediated transcription by transfecting Chinese hamster ovary (CHO) cells using the FXR plasmid, mouse RXRα, and the ΔMTV-(EcRE)5-CAT reporter as described herein. An RXR-dependent CRBPII-CAT reporter plasmid was employed in parallel assays to discern activators specific for this receptor.

[1] = dose 20 μM, 1 = no increase over vehicle

C[C@@]12C=Cc3occc3[C@H]1CC[C@@]13C[C@@H](CC[C@H]12)[C@@](O)(CO)C3 [kahweol]
FXR ACTIVITY (fold-induction) [1]: 10 fold-induction

CCOCn1c(-c2ccc(Cl)cc2)c(C#N)c(Br)c1C(F)(F)F [chlorfenapyr]
FXR-dependent activity, induction (25 μM): 10 fold

CCCCCc1cc(O)c2c(c1)OC(C)(C)c1ccc(C)cc1-2 [cannabinol]
FXR-dependent CAT activity, induction (15 μM): not

OCCc1ccccc1O [2-hydroxyphenethyl alcohol, 2-hydroxyphenethlyl alcohol]
FXR-dependent activity, induction (400 μM): 3 fold

COC(=O)C1=CC[C@H]([C@H](C)CC(=O)CC(C)C)CC1 [juvabione]
RXR mediated transcription, increase (plant-derived JH agonists examined as FXR effectors): 3 fold

C=C(C)C1CCC2(C)OC2C1 (stereo not drawn) [limonene oxide]
FXR-dependent activity, induction (400 μM): inactive

CC/C=C\CC1C(=O)CCC1CC(=O)OC (stereo not drawn) [methyl jasmonate]
FXR-dependent activity, induction (1 mM): 17 fold | FXR ACTIVITY (fold-induction) (dose 1000 μM): 18 fold-induction

C=CCc1cc(OC)c2c(c1OC)OCO2 [apiole]
FXR-dependent CAT activity, induction (250 μM): 4 fold

COC1=C(OC)C(=O)C(C/C=C(\C)CC/C=C(\C)CC/C=C(\C)CC/C=C(\C)CC/C=C(\C)CCC=C(C)C)=C(C)C1=O [U6]
FXR-dependent activity, induction (dose not stated): inactive

C=CC(C)(O)CCCC/C=C(\C)CC(C)=O (stereo not drawn) [echinolone]
FXR-dependent activity, maximal induction (maximal (highest non-cytotoxic) dose): 7 fold

CCCC(=O)O[C@@H]1[C@@H](C)[C@@]2(O)[C@@H](C=C(CO)C[C@]3(O)C(=O)C(C)=C[C@@H]23)[C@@H]2C(C)(C)[C@]12OC(=O)CCC [phorbol 12,13-dibutyrate]
FXR-dependent activity, induction (10 μM): 2 fold

COc1ccc(-c2cc(=O)c3c(OC)c(OC)c(OC)c(OC)c3o2)cc1 [tangeretin]
FXR-dependent CAT activity, induction (50 μM): 4 fold

CC(C)=CC1C(C(=O)OCc2cccc(Oc3ccccc3)c2)C1(C)C (stereo not drawn) [phenothrin]
FXR-dependent activity, induction (25 μM): 8 fold

CC(COc1ccc(Oc2ccccc2)cc1)Oc1ccccn1 (stereo not drawn) [pyriproxyfen]
FXR ACTIVITY (fold-induction) (final dose of 50 ∝M, 1 = induction less than 2-fold below cytotoxic doses): 9 fold-induction

CC(C)=CCc1c(O)cc(O)c2c1O[C@H](c1ccc(O)cc1)CC2=O [8-prenylnaringenin]
FXR-dependent CAT activity, induction (20 μM): 38 fold | FXR ACTIVITY (fold-induction) [1]: 38 fold-induction

O=C(O)c1ccc2c(c1)OCO2 [piperonylic acid]
FXR-dependent activity, induction (dose not stated): inactive

Clc1ccc(C(c2ccc(Cl)cc2)C(Cl)(Cl)Cl)cc1 [p,p-DDT]
FXR-dependent CAT activity, induction (5 μM): not

N#Cc1nn(-c2c(Cl)cc(C(F)(F)F)cc2Cl)c(N)c1[S+]([O-])C(F)(F)F (stereo not drawn) [fipronil]
FXR-dependent activity, induction (25 μM): 20 fold

CC12CCC(CC1)C(C)(C)O2 [1,8-cineole]
FXR-dependent activity, induction (800 μM): two-fold | FXR ACTIVITY (fold-induction) (dose 400 μM): 2 fold-induction

COC1=C(OC)C(=O)C(C/C=C(\C)CC/C=C(\C)CCC=C(C)C)=C(C)C1=O [U3]
FXR-dependent activity, induction (dose not stated): 5 fold

CC1(C)[C@@H]2C[C@H]1[C@@](C)(O)[C@@H](O)C2 [pinane diol]
FXR-dependent activity, induction (0.5 mM): 5 fold

C[C@H]([C@H](O)CCC(C)(C)O)[C@H]1CC[C@@]2(O)C3=CC(=O)[C@@H]4C[C@@H](O)[C@@H](O)C[C@]4(C)[C@H]3CC[C@]12C [ecdysone]
FXR-dependent activity, induction (dose not stated): unresponsive

C[C@H]1[C@H](C)CC[C@]2(C)CC[C@]3(C)C(=CC[C@@H]4[C@@]5(C)CC[C@@H](O)[C@](C)(C(=O)O)[C@@H]5CC[C@]43C)[C@H]12 [β-boswellic acid]
FXR-dependent activity, induction (25 μM): 11 fold | FXR ACTIVITY (fold-induction) (dose 25 μM): 11 fold-induction

O=[N+]([O-])NC1=NCCN1Cc1ccc(Cl)nc1 [imidacloprid]
FXR-dependent activity, induction (dose not stated): unaffected

COc1cc2c(cc1OC)OC(C)(C)C=C2 [precocene II]
FXR-dependent activity, induction (dose not stated): 15 fold | EC50 (read-out: EC50 for FXR-dependent CAT activity): 150 µM

COC1=C(OC)C(=O)C(C/C=C(\C)CC/C=C(\C)CC/C=C(\C)CC/C=C(\C)CC/C=C(\C)CC/C=C(\C)CC/C=C(\C)CCC=C(C)C)=C(C)C1=O [U8]
FXR-dependent activity, induction (dose not stated): inactive

C=C(C)CCc1cc(OC)c(OC)cc1O [3,4-dimethoxy-6-isopentenylphenol]
FXR-dependent activity, induction (100 μM): 3 fold

COc1cc(O)c(CC=C(C)C)c2c1C(=O)CC(c1ccc(O)cc1)O2 (stereo not drawn) [Isoxanthohumol]
FXR-dependent CAT activity, induction (20 μM): 9 fold | FXR ACTIVITY (fold-induction) [1]: 9 fold-induction

Cl[C@H]1[C@H](Cl)[C@@H](Cl)[C@@H](Cl)[C@H](Cl)[C@H]1Cl [lindane]
FXR-dependent CAT activity, induction (5 μM): 5 fold

CC1=C[C@]23C(=O)[C@@H](C=C(COC(=O)c4ccccc4)[C@@H](O)[C@]2(O)[C@H]1OC(=O)c1ccccc1)[C@H]1[C@@H](C[C@H]3C)C1(C)C [ingenol-3,20-dibenzoate]
FXR-dependent activity, induction (10 μM): 5 fold | FXR ACTIVITY (fold-induction) (dose 10 μM): 5 fold-induction

OCc1ccc2c(c1)OCO2 [piperonyl alcohol]
FXR-dependent activity, induction (dose not stated): inactive

Cn1cnc2c1c(=O)[nH]c(=O)n2C [theobromine]
FXR-dependent activity, induction (dose not stated): ineffective

O=c1[nH]cnc2nc[nH]c12 [hypoxanthine]
FXR-dependent activity, induction (dose not stated): ineffective

COc1ccc2ccc(=O)oc2c1 [7-methoxycoumarin]
FXR-dependent activity, induction (1 mM): 10 fold

COP(=S)(OC)SCN1C(=O)c2ccccc2C1=O [imidan]
FXR-dependent activity, induction (dose not stated): inactive

COc1cc(C2Oc3cc([C@H]4Oc5cc(O)cc(O)c5C(=O)[C@@H]4O)ccc3OC2CO)ccc1O (stereo partly drawn) [silybin]
FXR-dependent CAT activity, induction (50 μM): 18 fold | FXR ACTIVITY (fold-induction) (dose 100 μM, 1 = no increase over vehicle): 10 fold-induction

CC12CCC(C1)C(C)(C)C2=O (stereo not drawn) [fenchone]
FXR-dependent activity, induction (0.5 mM): inactive

C=C(C)[C@H]1Cc2c(ccc3c2O[C@@H]2COc4cc(OC)c(OC)cc4[C@@H]2C3=O)O1 [rotenone]
FXR ACTIVITY (fold-induction) [1]: 1 fold-induction | FXR-dependent activity, induction (dose not stated): inactive

CC1=C[C@H]2[C@@]3(O)[C@H](C)[C@@H](O)[C@]4(O)[C@H]([C@@H]3C=C(CO)C[C@]2(O)C1=O)C4(C)C [Phorbol]
FXR-dependent activity, induction (dose not stated): inactive

COC1=C(OC)C(=O)C(C/C=C(\C)CC/C=C(\C)CC/C=C(\C)CCC=C(C)C)=C(C)C1=O [U4]
FXR-dependent activity, induction (dose not stated): 3 fold

5,11-dimethyltetrahydrochrysene
FXR-dependent activity, induction (dose not stated): activated

OCCc1ccccc1 [phenethyl alcohol]
FXR-dependent activity, induction (400 μM): inert

Clc1cc2c(cc1Cl)Oc1cc(Cl)c(Cl)cc1O2 [tetrachloro- dibenzo-p- dioxin, 2,3,7,8-tetrachlorodibenzo-p-dioxin]
FXR-dependent CAT activity, induction (100 nM): 15 fold | FXR ACTIVITY (fold-induction) (dose 0.1 μM): 15 fold-induction

CCCCCc1cc(O)c2c(c1)OC(C)(C)[C@@H]1CCC(C)=C[C@@H]21 [THC, 1-trans-Δ^9-tetrahydrocannabinol]
FXR-dependent CAT activity, induction (15 μM): 5 fold
